Results from paper PMC5622025, “Synthesis and biological evaluation of tricyclic matrinic derivatives as a class of novel anti-HCV agents” (Chemistry Central Journal, 2017).
Counter-ions that a name gives are not always drawn. Like-named read-outs stand apart in the source and are kept apart here.

Tests used:
HCV = test: Anti-HCV effect in vitro, intracellular HCV RNA by real-time RT-PCR in infected Huh7.5 cells; format: cell-based, hepatitis C virus; details: for EC50: read-out: EC50 (concentration required to inhibit HCV growth by 50%); for SI (ratio of CC50 to EC50): Huh7.5 cells
Procedure: (§1) All the target compounds were evaluated for their anti-HCV activities (EC50) and cytotoxicities (CC50) in human Huh7.5 cells using specific real-time RT-PCR assay, as described earlier. As an important indicator, the selectivity index (SI) was calculated as a ratio of CC50 to EC50. Anti-HCV ability of a given compound was estimated by combining its EC50 with SI values.
(§2) Human liver cell line Huh7.5 cells (kindly provided by Vertex Pharmaceuticals, Inc., Boston, MA) were cultured in Dulbecco’s modified eagle medium (DMEM) supplemented with 10% inactivated fetal bovine serum and 1% penicillin–streptomycin (invitrogen). Cells were digested with 0.05% trypsin-ethylene diamine tetraacetic acid (EDTA) and split twice a week.
Huh7.5 cells were seeded into 96-well or 6-well plates (Costar) at a density of 3 × 10^4 cells cm^−2. After 24 h incubation, the cells were infected with HCV viral stock (45 IU cell^−1) and simultaneously treated with the test compounds at various concentrations or solvent as control. The culture medium was removed after 72 h inoculation, the intracellular total RNA (in 96-well plates) was extracted with RNeasy Mini Kit (Qiagen), and total intracellular proteins (in 6-well plates) were extracted with Cyto-Buster Protein Extraction Reagent added with 1 mM protease inhibitor cocktail. The intracellular HCV RNA was quantified with a real time one-step reverse-transcription polymerase chain reaction (RT-PCR).

Huh7.5 cells = test: Cytotoxicity assay (MTT) in Huh7.5 cells; format: cell-based, human
Procedure: as §1, §2
(§3) Huh7.5 cells were seeded into 96-well plates (Costar) at a density of 3 × 10^4 cells cm^−2. After 24 h incubation, fresh culture medium containing test compounds at various concentrations were added. 72 h later, cytotoxicity was evaluated with 3-(4,5-dimethylthiazol-2-yl)-2,5-diphenyltetrazolium bromide (MTT).

[1] = Cytotoxicity assay (MTT) in Huh7.5 cells; format: cell-based, human; details: human
Procedure: as §1, §2, §3

[2] = HCV-infected Huh7.5 cells, 72 h, real-time RT-PCR
[3] = Huh7.5 cells, 72 h, MTT, read-out: CC50 (cytotoxic concentration required to inhibit Huh7.5 cell growth by 50%)
[4] = Hepatitis C virus, Huh7.5, 72 h

SMILES | EC50 (HCV; [2]) | SI (ratio of CC50 to EC50) (HCV) | CC50 (Huh7.5 cells) | CC50 (Huh7.5 cells; [3]) | EC50 (HCV; [4]) | CC50 at 72 h [1, 3] | melting point | CC50 at 72 h [1]
COc1ccc(CN2CC3CCCN4CCCC(C2/C=C\CCO)C34)cc1.Cl.Cl (stereo not drawn) [14a, (Z)-12N-(4-Methoxybenzyl)-Δ^βγ-matrinic crotonol dihydrochloride] | 8.8 ± 2.15 µM | 24.3 | 214 ± 95 µM |  |  |  |  | 
COC(=O)C/C=C\[C@@H]1[C@H]2CCCN3CCC[C@@H](CN1Cc1cccc([N+](=O)[O-])c1)[C@@H]23.Cl.Cl [13c, (Z)-Methyl 12N-(3-nitrobenzyl)-Δ^βγ-matrinic crotonate dihydrochloride] | 40.4 ± 3.64 µM | 10.0 |  | 402 ± 83.6 µM |  |  |  | 
CCCN1C[C@@H]2CCCN3CCC[C@@H]([C@H]23)[C@H]1CCCCO [3b] | 16.4 ± 10.9 µM | > 30.5 | > 500 µM |  |  |  |  | 
COC(=O)CCC[C@@H]1[C@H]2CCCN3CCC[C@@H](CN1Cc1ccncc1)[C@@H]23 [6f, Methyl 12N-(pyridin-4-ylmethyl)matrinate] | 4.66 ± 0.35 µM | > 107 | > 500 µM |  |  |  |  | 
CCCCCCCN1C[C@@H]2CCCN3CCC[C@@H]([C@H]23)[C@H]1CCCCO [3c] | 1.01 ± 0.55 µM | 32.9 | 33.3 ± 6.49 µM |  |  |  |  | 
OCCCC[C@@H]1[C@H]2CCCN3CCC[C@@H](CN1Cc1ccc(F)cc1)[C@@H]23 [3a] | 2.99 ± 1.51 µM | 95.3 | 285 ± 7.45 µM |  |  |  |  | 
COc1ccc(CN2C[C@@H]3CCCN4CCC[C@@H]([C@H]34)[C@H]2CCCC(C)(C)O)cc1.Cl.Cl [10a, 1′,1′-Dimethyl-12N-(4-methoxybenzyl)matrinol dihydrochloride] | 11.7 ± 0.06 µM | 12.0 | > 140 µM |  |  |  |  | 
CC(C)(O)CCC[C@@H]1[C@H]2CCCN3CCC[C@@H](CN1Cc1ccncc1)[C@@H]23 [10e, 1′,1′-Dimethyl-12N-(4-pyridylmethyl)matrinol] | 80.4 µM |  | > 500 µM |  |  |  |  | 
COC(=O)C/C=C\C1C2CCCN3CCCC(CN1Cc1ccc(OC)cc1)C23 (stereo not drawn) [13a, (Z)-Methyl 12N-(4-methoxybenzyl)-Δ^βγ-matrinic crotonate] | 16.7 ± 4.71 µM | 19.5 | 326 ± 21 µM |  |  |  |  | 
CCCCCCCCN1C[C@@H]2CCCN3CCC[C@@H]([C@H]23)[C@H]1CCCCO [3d] | 0.8 ± 0.26 µM | 22.3 | 17.8 ± 2.44 µM |  |  |  |  | 
COC(=O)CCC[C@@H]1[C@H]2CCCN3CCC[C@@H](CN1Cc1ccc(F)cc1F)[C@@H]23 [6d, Methyl 12N-(2,4-difluorobenzyl)matrinate] | 1.69 ± 1.47 µM | 154 |  | 261 ± 28.7 µM |  |  |  | 
CCCC[C@@H]1[C@H]2CCCN3CCC[C@@H](CN1Cc1ccc(OC)cc1)[C@@H]23 [compound 9, 12N-4-methoxybenzyl matrinic butane] |  | 36.1 |  |  | 1.16 ± 0.25 µM | 41.9 ± 1.1 µM | 73 to 74 °C | 
Cl.Cl.OCCCCC1C2CCCN3CCCC(CN1Cc1ccc(Cl)cn1)C23 (stereo not drawn) [7 g, 12N-(5-Chloropyridin-2-ylmethyl)matrinol dihydrochloride] | 10.9 ± 5.59 µM | > 45.9 | > 500 µM |  |  |  |  | 
Cl.Cl.O=C(CN1CC2CCCN3CCCC(C1CCCCO)C23)Nc1ccc(C(F)(F)F)cc1 (stereo not drawn) [7i, 12N-(2-Oxo-2-((4-(trifluoromethyl)phenyl)amino)ethyl)matrinol dihydrochloride] | 4.19 ± 1.44 µM | 20.6 | 86.2 ± 4.33 µM |  |  |  |  | 
COC(=O)CCCC1C2CCCN3CCCC(CN1Cc1ccc([N+](=O)[O-])cc1)C23.Cl.Cl (stereo not drawn) [6e, Methyl 12N-(4-nitrobenzyl)matrinate dihydrochloride] | 14.2 ± 3.13 µM | 16.5 | 235 ± 48.2 µM |  |  |  |  | 
C=Cc1ccc(CN2C[C@@H]3CCCN4CCC[C@@H]([C@H]34)[C@H]2CCCC(=O)OC)cc1 [6c, Methyl 12N-(4-vinylbenzyl)matrinate] | 1.61 ± 0.76 µM | 50.4 |  | 81.2 ± 12.9 µM |  |  |  | 

SMILES | EC50 (HCV; [2]) | SI (ratio of CC50 to EC50) (HCV) | CC50 (Huh7.5 cells) | CC50 (Huh7.5 cells; [3]) | EC50 (HCV; [4]) | CC50 at 72 h [1, 3] | melting point | CC50 at 72 h [1]
COC(=O)CCC[C@@H]1[C@H]2CCCN3CCC[C@@H](CN1Cc1ccc(F)cc1)[C@@H]23 [compound 2] | 2.09 ± 1.65 µM | 131 |  | 274 ± 8.35 µM |  |  |  | 
O=C(CN1C[C@@H]2CCCN3CCC[C@@H]([C@H]23)[C@H]1CCCCO)Nc1ccccc1 [7 h, 12N-(2-Oxo-2-(phenylamino)ethyl)matrinol] | 46.7 ± 41 µM | > 10.7 | > 500 µM |  |  |  |  | 
CCC(O)(CC)CCC[C@@H]1[C@H]2CCCN3CCC[C@@H](CN1Cc1ccc(C)cc1)[C@@H]23.Cl.Cl [10c, 1′,1′-Diethyl-12N-(4-methylbenzyl)matrinol dihydrochloride] | < 0.23 µM | > 53.5 | 12.3 ± 4.23 µM |  |  |  |  | 
COC(=O)C/C=C\[C@@H]1[C@H]2CCCN3CCC[C@@H](CN1Cc1ccc(F)cc1)[C@@H]23.Cl.Cl [13b, (Z)-Methyl 12N-(4-fluorobenzyl)-Δ^βγ-matrinic crotonate dihydrochloride] | 18.1 ± 6.49 µM | 14.4 | 260 ± 84.8 µM |  |  |  |  | 
CC(C)(O)CCCC1C2CCCN3CCCC(CN1Cc1ccc(F)cc1F)C23.Cl.Cl (stereo not drawn) [10d, 1′,1′-Dimethyl-12N-(2,4-difluorobenzyl)matrinol dihydrochloride] | 6.55 ± 2.69 µM | 23.8 | 156 ± 37.9 µM |  |  |  |  | 
C=Cc1ccc(CN2C[C@@H]3CCCN4CCC[C@@H]([C@H]34)[C@H]2CCCCO)cc1.Cl.Cl [7c, 12N-(4-Vinylbenzyl)matrinol dihydrochloride] | 3.16 ± 0.51 µM | 45.3 | 143 ± 32.3 µM |  |  |  |  | 
Cc1ccc(CN2CC3CCCN4CCCC(C2CCCC(C)(C)O)C34)cc1.Cl.Cl (stereo not drawn) [10b, 1′,1′-Dimethyl-12N-(4-methylbenzyl)matrinol dihydrochloride] | 0.82 ± 0.26 µM | 67.9 | 55.7 ± 7.5 µM |  |  |  |  | 
O=[N+]([O-])c1cccc(CN2C[C@@H]3CCCN4CCC[C@@H]([C@H]34)[C@H]2/C=C\CCO)c1 (as salt: hydrochloride) [compound 20, (Z)-12N-(3-nitrobenzyl)-Δ^βγ-matrinic crotonol dihydrochloride] |  |  |  |  |  |  | 143 to 145 °C | 
CCC[C@H](NC(=O)[C@@H]1[C@H]2CCC[C@H]2CN1C(=O)[C@@H](NC(=O)[C@@H](NC(=O)c1cnccn1)C1CCCCC1)C(C)(C)C)C(=O)C(=O)NC1CC1 [Tela, telaprevir, reference compound] |  | 1950 |  |  | 0.02 ± 0.02 µM |  |  | 47.6 ± 0.61 µM
O=[N+]([O-])c1cccc(CN2C[C@@H]3CCCN4CCC[C@@H]([C@H]34)[C@H]2/C=C\CCO)c1 [compound 20, (Z)-12N-(3-nitrobenzyl)-Δ^βγ-matrinic crotonol dihydrochloride] |  | 17.0 |  |  | 18.4 ± 1.64 µM | 312 ± 31.1 µM |  | 
OCCCCC1C2CCCN3CCCC(CN1Cc1cccnc1)C23 (stereo not drawn) [7f, 12N-(Pyridin-3-ylmethyl)matrinol] | 4.39 ± 3.01 µM | > 114 | > 500 µM |  |  |  |  | 
COC(=O)CCC[C@@H]1[C@H]2CCCN3CCC[C@@H](CN1Cc1ccc(OC)cc1)[C@@H]23.Cl.Cl [6a, Methyl 12N-(4-methoxybenzyl)matrinate dihydrochloride] | 7.01 ± 1.51 µM | 59.1 | 414 ± 7.34 µM |  |  |  |  | 
Cl.Cl.OCC/C=C\C1C2CCCN3CCCC(CN1Cc1ccc(F)cc1)C23 (stereo not drawn) [14b, (Z)-12N-4-(Fluorobenzyl)-Δ^βγ-matrinic crotonol dihydrochloride] | 13.6 ± 2.63 µM | 11.5 | 156 ± 65.8 µM |  |  |  |  | 
COC(=O)CCC[C@@H]1[C@H]2CCCN3CCC[C@@H](CN1Cc1ccc(C)cc1)[C@@H]23 [6b, Methyl 12N-(4-methylbenzyl)matrinate] | 1.73 ± 1.36 µM | 76.8 |  | 133 ± 7.53 µM |  |  |  | 
OCCCCC1C2CCCN3CCCC(CN1Cc1ccc(F)cc1F)C23 (stereo not drawn) [7d, 12N-(2,4-Difluorobenzyl)matrinol dihydrochloride] | < 2.06 µM |  |  | 266 ± 9.47 µM |  |  |  | 
Cl.Cl.OCCCC[C@@H]1[C@H]2CCCN3CCC[C@@H](CN1Cc1ccncc1)[C@@H]23 [7e, 12N-(Pyridin-4-ylmethyl)matrinol dihydrochloride] | 9.03 ± 5.58 µM | > 55.4 | > 500 µM |  |  |  |  | 
